Test results: article PMC8744746 (International Journal of Molecular Sciences, 2021)
pEC50: −log10 of the molar value. “And” between values parts separate entries of the source, which are not always exact repeats. Equal values may be shown once. “Also recorded” adds a separate entry of the source. Read-outs that look alike come from different tables or passages of the source.

Legend:
RH-GFP T. gondii = details: GFP-expressing parasites per vacuole, tracked up to 36 h
in vitro = details: human
Description: Because replicating cells may be more vulnerable than confluent monolayers, we evaluated survival of both subconfluent (dividing) and confluent (contact-inhibited) HFF cultures after 72 h of exposure to increasing drug concentrations (Supplemental Figure S4). […] Using this information, we calculated the in vitro therapeutic index for these drugs, which is the ratio of the CC50 to the EC50.
For subconfluent monolayers, approximately 5 × 10^4 HFF cells were plated into each well of a 24-well dish and exposed to D10+ media alone or D10+ with DMSO or drug for 3 days. The plates were processed with the In Vitro Toxicology Assay Kit, MTT based (Sigma Aldrich, TOX1), and A570 was measured in a SpectraMax I3X plate reader. Exported data were analyzed using Microsoft Excel. For confluent monolayers, approximately 5 × 10^4 HFF cells were plated into each well of a 24-well dish and grown in D10+ media alone. Once the cells were confluent, they were gently rinsed with PBS, and D10+ with DMSO or drug was added to each well. The plates were processed as above.

HFF cell microtubules = assay: Tubulin immunofluorescence and SFEX quantification of vertebrate microtubules; format: cell-based, human; details: at or above the EC50 for oryzalin, clemastine, astemizole; versus vehicle control
Description: Vertebrate sensitivity is assessed using tubulin immunofluorescence to visualize microtubule networks after drug treatment of uninfected human HFF cells in culture (Figure 3A). To quantify microtubule polymer density between treatments, we used the SFEX program [19] to segment and enumerate filaments in a fixed-size region of interest. Treatment with the vertebrate microtubule-depolymerizing colchicine-site ligand combretastatin A4 [32] was used as a positive control to ensure that the SFEX parameters captured partial, as well as total, loss of cytoplasmic microtubules.
HFF cells were seeded subconfluently onto sterile 12-mm circular glass coverslips in 6-well dishes. Cells were grown to semiconfluency (3–4 days). Cultures were exposed to DMSO (vehicle control) and drugs of interest for 60 min at 37 °C. These samples were fixed and permeabilized with ice-cold methanol for 3–5 min and blocked in 10% BSA in Ca^2+, Mg^2+-free PBS at room temperature for 30 min or overnight at 4 °C. […] The open-source software Stress Fiber Extractor 1.0 [19] was used to quantify assembled tubulin (microtubules) present in HFF-cell immunofluorescence images within MATLAB R2015a, using the “Stress Fiber Network” analysis feature. […] Quantitative analysis of the segmented filaments was performed with the Stress Fiber Extractor, with export of data into Excel (Microsoft, Redmond, WA, USA). […]

[1] = system: Toxoplasma tachyzoite subpellicular microtubules; assay: Subpellicular microtubule length in deoxycholate-extracted tachyzoites (ImageJ); format: cell-based, Toxoplasma gondii; details: drug-treated tachyzoites versus vehicle controls
Description: In parallel, we assessed the effect of these candidate tubulin-targeting agents on parasite microtubules, also via tubulin immunofluorescence. Because tachyzoite subpellicular microtubules are unusually resistant to detergent extraction due to the association of SPM1 and other stabilizing luminal proteins, these structures can be specifically isolated for analysis. Vehicle- and drug-treated parasites were incubated with deoxycholate, and the extracted subpellicular microtubule arrays were detected with tubulin immunofluorescence (Figure 4A). Images of parasite microtubules were measured using ImageJ.
To measure the length distribution of Toxoplasma tachyzoite subpellicular microtubules in control and treated parasites, we isolated subpellicular microtubule complexes by deoxycholate extraction of freshly lysed tachyzoites. Briefly, RH parasites were treated with DMSO or candidate drugs in culture for 2 days. Following lysis of host cells, extracellular parasites were centrifuged at 1000× g for 20 min at 4 °C and then resuspended in 1 mL of PBS. Parasites were settled onto poly-l-lysine (Sigma)-coated coverslips for 15 min at room temperature. Coverslips were incubated with 10 mg/mL deoxycholate (DOC) in phosphate-buffered saline (PBS) for 10 min to extract the subpellicular microtubule cytoskeleton. Samples were fixed in 3.7% formyl saline (Sigma) at room temperature for 10–15 min, followed by immunostaining for tubulin, as described above. Extracted subpellicular microtubules in immunofluorescence images were measured using ImageJ.

[2] = system: Toxoplasma RH strain tachyzoites; assay: microbe, parasite or virus in culture; details: 168 h, read-out: EC50, Toxoplasma RH Strain, plaque area relative to control after 7 days in HFF monolayers
Description: (§1) To assess this, we gauged the therapeutic index by measuring compound EC50 for Toxoplasma tachyzoites grown in vertebrate host cells versus the CC50 for uninfected human foreskin fibroblast (HFF) cells. […] After 1 week of parasite growth, we visualized lytic destruction of crystal violet-stained host cells to reveal macroscopic plaques in the monolayer (Figure 2B). Greyscale images of individual wells were analyzed with the open-source program ImageJ [18] using the “threshold” functionality to differentiate between cells (dark gray) and plaques (white). The program calculates plaque number, average size, and percent total area within the field. The EC50 value is determined by graphing the relationship between compound concentrations and percent total plaque area relative to control cultures. […] HFF cells were grown to confluency in 6-well dishes and infected with 300 tachyzoites/well. Individual wells were treated with varying concentrations of drug, and the plates were left undisturbed for 7 days at 37 °C in a humidified 5% CO2 incubator. […] Greyscale photographic images of the plates were analyzed in ImageJ (NIH, Bethesda, MD, USA) using the “threshold” functionality. Plaque number, average size and percent total area were calculated by the program. […]

RH-GFP parasites = format: cell-based, Toxoplasma gondii; details: drugs at their EC50 concentrations, clemastine +/− pretreatment
Description: The red-green invasion assay using GFP-expressing tachyzoites was adapted from the original protocol. HFF cells were grown to confluency on coverslips in 6-well dishes. RH-GFP parasites were harvested from infected host cells by syringe passage through a 27-gauge needle. Tachyzoites were allowed to adhere to host cells for 20 min at 37 °C in a high-potassium “Endo” buffer. The buffer was replaced with warm invasion medium (DMEM + various drug conditions). Parasite invasion occurred under control or drug-treated conditions for 3 min (short invasion time) or 30 min (long invasion time) at 37 °C in a humidified 5% CO2 incubator. After invasion, samples were washed with PBS, fixed with formyl saline without subsequent permeabilization, stained with mouse anti-SAG1 antibody (Invitrogen, Waltham, MA, USA: D61S, 1:1000), and detected with a goat anti-mouse secondary antibody conjugated to Alexa Fluor 594 (Invitrogen A11005, 1:1000). Extracellular, invading, and intracellular parasites were scored from 10 random microscope fields. Invasion was calculated by dividing the number of intracellular parasites by the total number of parasites counted.

[3] = system: Toxoplasma RH strain tachyzoites; details: read-out: EC50, Toxoplasma RH Strain; plaque area relative to control after 7 days in HFF monolayers
Description: as §1

[4] = system: α-tubulin in T. gondii tachyzoites; assay: Immunoblot quantification of α-tubulin protein in tachyzoites; format: cell-based, Toxoplasma gondii; details: clemastine-treated tachyzoites (8 μM in Figure 4D); DMSO control 0.022
Source text: Parasite equivalents and known concentrations of porcine tubulin standards were resolved by SDS-PAGE for subsequent immunoblot analysis using a broadly cross-reacting α-tubulin monoclonal antibody that recognizes both vertebrate and Toxoplasma tubulin. Band intensity was quantified with ImageJ, and the porcine samples were used to create a standard curve to determine α-tubulin concentration in Toxoplasma samples normalized to parasite equivalents.
The samples were resolved on a 10% SDS-polyacrylamide gel (Bio-Rad) and blotted to nitrocellulose for immunoblot analysis. Blots were probed with a mouse anti-α-tubulin antibody (Sigma T9026; 1:5000) and detected with an IgG anti-mouse secondary antibody conjugated to HRP (Promega, Madison, WI, USA: W4021, 1:10,000). Samples were imaged using a Nikon D700 fitted with a 55 mm f/1.4 Nikkor auto-focus lens and intervening 12 mm Kenko auto-focus extension tube [46]. Exposure times were controlled with a Satechi TRC-B remote shutter control. Band intensity was quantified using ImageJ.

Toxoplasma = system: Toxoplasma; parameters: method as in PMID 28609444; details: cited from earlier work

| Molecule | Effect on tachyzoite replication (RH-GFP T. gondii) | Effect on vertebrate (HFF) microtubules, in words (HFF cell microtubules) | Effect on Toxoplasma subpellicular microtubule length, in words [1] | Effect on tachyzoite invasion (RH-GFP parasites) | also measured |
| --- | --- | --- | --- | --- | --- |
| COc1ccc(CCN2CCC(Nc3nc4ccccc4n3Cc3ccc(F)cc3)CC2)cc1 [Astemizole] | No delays in replication are detected at 36 hours; also recorded: did not detect overt slowing of replication | do not significantly differ from the vehicle control | smaller but significant decreases in filament length; also recorded: small but significant decrease in microtubule length | does not affect invasion | CC50 at 72 h (in vitro; HFF CC50 confluent): 18000 nM; CC50 at 72 h (in vitro; HFF CC50 subconfluent): 8830 nM; pEC50 [2]: ~5.70; pEC50 [3]: 5.68 |
| CN1CCC[C@@H]1CCO[C@](C)(c1ccccc1)c1ccc(Cl)cc1 [Clemastine] | No delays in replication are detected at 36 hours; also recorded: did not detect overt slowing of replication | – | – | does not affect invasion | α-tubulin (pg)/tachyzoite [4]: 0.02 pg/tachyzoite and ~ 0.02 pg/tachyzoite |
| COc1ccc(/C=C\c2cc(OC)c(OC)c(OC)c2)cc1O [Combretastatin A4, combretastatin A4] | – | dose-dependent microtubule disassembly | – | – | – |
| CCc1nc(N)nc(N)c1-c1ccc(Cl)cc1 [Pyrimethamine] | – | – | does not reduce microtubule length | – | Effect on Toxoplasma subpellicular microtubule length, in words ([1]; listed as pyrimethamine): not different to that of the vehicle controls |
| OCCOCCN1CCN(C(c2ccccc2)c2ccc(Cl)cc2)CC1 (stereo not shown) [hydroxyzine] | – | – | – | – | pEC50 (Toxoplasma): 6.00 |
| Parabulin | – | – | significant reduction in microtubule length; also recorded: significant microtubule shortening relative to control samples | – | – |
